Reference: publication PMC2879007 (Biochemical pharmacology, 2010)
Marks after values point to notes of the source that are not given here.

Legend:
[1] = target: purified human MAO-A; details: reversible competitive inhibitor; cited from earlier work
[2] = target: CYP2D6.2 (Homo sapiens, UniProt P10635, R296C/S486T); test: bufotenine production from 5-MeO-DMT by recombinant CYP2D6.2; assay type: in vitro ADME
[3] = system: human CYP2D6 PM hepatocytes; test: 5-MeO-DMT depletion and bufotenine formation in human CYP2D6 PM hepatocytes
[4] = as above; details: human, 5-MeO-DMT alone, 2 µM; for hepatocyte CLint at 2 µM: In vitro CLint
[5] = target: CYP2D6.1 (Homo sapiens, UniProt P10635); test: bufotenine production from 5-MeO-DMT by recombinant CYP2D6.1; assay type: in vitro ADME
[6] = serum pharmacokinetics in Tg-CYP2D6; assay type: in vivo, mice; details: for Cmax / MRT / Tmax / half-life: Tg-CYP2D6 (CYP2D6-humanized), mouse, ip; for Cmax / MRT / Tmax / half-life / AUC0→∞: serum; for increase of systemic exposure (AUC0→∞) by harmaline pre-treatment: 5-MeO-DMT 2 mg/kg i.p., harmaline 5 mg/kg i.p.
[7] = target: CYP2D6.10 (Homo sapiens, UniProt P10635, P34S/S486T); test: bufotenine production from 5-MeO-DMT by recombinant CYP2D6.10; assay type: in vitro ADME
[8] = system: human CYP2D6 EM hepatocytes; test: 5-MeO-DMT depletion and bufotenine formation in human CYP2D6 EM hepatocytes
[9] = as above; details: human, 5-MeO-DMT alone, 2 µM; for hepatocyte CLint at 2 µM: In vitro CLint
[10] = serum pharmacokinetics in wild-type FVB/N mice; assay type: in vivo; details: for Cmax / MRT / Tmax / half-life: FVB/N (wild-type), mouse, ip; for Cmax / MRT / Tmax / half-life / AUC0→∞: serum; for increase of Cmax by co-administered harmaline / increase of MRT by co-administered harmaline / increase of systemic exposure (AUC0→∞) by harmaline pre-treatment: 5-MeO-DMT 2 mg/kg i.p., harmaline 5 mg/kg i.p.
[11] = 5-MeO-DMT O-demethylase activity
[12] = bufotenine production from 5-MeO-DMT, Vmax/Km
[13] = bufotenine production from 5-MeO-DMT, mean ± SEM
[14] = PM hepatocytes 2, with harmaline, 2 µM each
[15] = PM hepatocytes 3, with harmaline, 2 µM each
[16] = PM hepatocytes 4, with harmaline, 2 µM each
[17] = Tg-CYP2D6 mice, 2 mg/kg 5-MeO-DMT alone i.p.
[18] = wild-type mice, 2 mg/kg 5-MeO-DMT alone i.p.

COc1ccc2c3c([nH]c2c1)C(C)=NCC3 [Harmaline]
Ki [1]: 48 nM

COc1ccc2[nH]cc(CCN(C)C)c2c1 [5-MeO-DMT, 5-Methoxy-N,N-dimethyltryptamine]
lower catalytic efficiency (Vmax/Km) compared with wild-type CYP2D6.1 [2, 11]: 2.6 fold | CLint [2, 12]: 0.17 µL/pmol P450/min | Vmax [2, 13]: 14.4 ± 0.9 pmol/pmol P450/min | Km at 5 min ([2]; human, recombinant CYP2D6.2 reconstituted with P450 reductase, pH 7.4): 85 ± 19.4 µM | Ke ([3]; PM hepatocytes 1, 5-MeO-DMT alone, 2 µM): 0.0186 min⁻¹ | Ke ([3]; PM hepatocytes 1, with harmaline, 2 µM each): 0.00086 min⁻¹ | Ke ([3]; PM hepatocytes 2, 5-MeO-DMT alone, 2 µM): 0.0251 min⁻¹ | In vitro T1/2 [3, 14]: cannot be estimated | Ke [3, 14]: cannot be estimated | Ke ([3]; PM hepatocytes 3, 5-MeO-DMT alone, 2 µM): 0.0215 min⁻¹ | In vitro T1/2 [3, 15]: cannot be estimated | Ke [3, 15]: cannot be estimated | Ke ([3]; PM hepatocytes 4, 5-MeO-DMT alone, 2 µM): 0.0265 min⁻¹ | In vitro T1/2 [3, 16]: cannot be estimated | Ke [3, 16]: cannot be estimated | Ke ([3]; PM hepatocytes Mean (N = 4), 5-MeO-DMT alone, 2 µM): 0.0229 min⁻¹ | Ke ([3]; PM hepatocytes Mean (only one sample estimable), with harmaline, 2 µM each): 0.00086 min⁻¹ | hepatocyte CLint at 2 µM ([4]; CYP2D6 PM hepatocytes, PM hepatocytes Mean (N = 4)): 81.9 µL/min/1e6 cells | half-life at 2 µM ([4]; CYP2D6 PM hepatocytes, In vitro T1/2, PM hepatocytes Mean (N = 4)): 30.8 min | hepatocyte CLint at 2 µM ([4]; human CYP2D6 PM (poor metabolizer) hepatocytes, PM hepatocytes 1): 66.5 µL/min/1e6 cells | hepatocyte CLint at 2 µM ([4]; human CYP2D6 PM (poor metabolizer) hepatocytes, PM hepatocytes 2): 95.8 µL/min/1e6 cells | hepatocyte CLint at 2 µM ([4]; human CYP2D6 PM (poor metabolizer) hepatocytes, PM hepatocytes 3): 88 µL/min/1e6 cells | half-life at 2 µM ([4]; human CYP2D6 PM (poor metabolizer) hepatocytes, In vitro T1/2, PM hepatocytes 1): 37.2 min | half-life at 2 µM ([4]; human CYP2D6 PM (poor metabolizer) hepatocytes, In vitro T1/2, PM hepatocytes 2): 27.6 min | half-life at 2 µM ([4]; human CYP2D6 PM (poor metabolizer) hepatocytes, In vitro T1/2, PM hepatocytes 3): 32.2 min | half-life at 2 µM ([4]; human CYP2D6 PM (poor metabolizer) hepatocytes, In vitro T1/2, PM hepatocytes 4): 26.1 min | CLint [5, 12]: 0.44 µL/pmol P450/min | Vmax [5, 13]: 12.8 ± 0.4 pmol/pmol P450/min | Km at 5 min ([5]; human, recombinant CYP2D6.1 reconstituted with P450 reductase, pH 7.4): 29.3 ± 4.2 µM | Cmax ([6]; 2 mg/kg): 1190 ± 330 nM | MRT ([6]; 2 mg/kg): 17.4 min | Tmax ([6]; 2 mg/kg): 5.8 min | half-life ([6]; 2 mg/kg): 14.7 ± 9 min | Cmax ([6]; 20 mg/kg): 18700 ± 900 nM | MRT ([6]; 20 mg/kg): 23.1 min | Tmax ([6]; 20 mg/kg): 6.3 min | half-life ([6]; 20 mg/kg): 13.4 ± 1.4 min | clearance [6, 17]: 440 ± 50 mL/min/kg | increase of systemic exposure (AUC0→∞) by harmaline pre-treatment ([6]; Tg-CYP2D6 mice): 3.6 fold | AUC0→∞ [6, 17]: 21.1 ± 2.3 ^b µmol·min/L | AUC0→∞ ([6]; Tg-CYP2D6 mice, 20 mg/kg 5-MeO-DMT i.p.): 568 ± 72 µmol·min/L | lower catalytic efficiency (Vmax/Km) compared with wild-type CYP2D6.1 [7, 11]: 40 fold | CLint [7, 12]: 0.011 µL/pmol P450/min | Vmax [7, 13]: 10.3 ± 2.2 pmol/pmol P450/min | Km at 20 min ([7]; human, recombinant CYP2D6.10 reconstituted with P450 reductase, pH 7.4): 947 ± 355 µM | reduction of in vitro CLint by co-administered harmaline ([8]; CYP2D6 EM hepatocytes, 5-MeO-DMT alone vs with harmaline): over 24 fold | Ke ([8]; EM hepatocytes 1, 5-MeO-DMT alone, 2 µM): 0.0214 min⁻¹ | Ke ([8]; EM hepatocytes 1, with harmaline, 2 µM each): 0.00259 min⁻¹ | Ke ([8]; EM hepatocytes 2, 5-MeO-DMT alone, 2 µM): 0.0232 min⁻¹ | Ke ([8]; EM hepatocytes 2, with harmaline, 2 µM each): 0.00141 min⁻¹ | Ke ([8]; EM hepatocytes 3, 5-MeO-DMT alone, 2 µM): 0.0273 min⁻¹ | Ke ([8]; EM hepatocytes 3, with harmaline, 2 µM each): 0.00263 min⁻¹ | Ke ([8]; EM hepatocytes 4, 5-MeO-DMT alone, 2 µM): 0.02 min⁻¹ | Ke ([8]; EM hepatocytes 4, with harmaline, 2 µM each): 0.00195 min⁻¹ | Ke ([8]; EM hepatocytes 5, 5-MeO-DMT alone, 2 µM): 0.0333 min⁻¹ | Ke ([8]; EM hepatocytes 5, with harmaline, 2 µM each): 0.00061 min⁻¹ | Ke ([8]; EM hepatocytes Mean (N = 5), 5-MeO-DMT alone, 2 µM): 0.025 min⁻¹ | Ke ([8]; EM hepatocytes Mean (N = 5), with harmaline, 2 µM each): 0.00184 min⁻¹ | half-life at 2 µM ([9]; CYP2D6 EM hepatocytes, In vitro T1/2, EM hepatocytes 1): 32.4 min | half-life at 2 µM ([9]; CYP2D6 EM hepatocytes, In vitro T1/2, EM hepatocytes 2): 29.9 min | hepatocyte CLint at 2 µM ([9]; human CYP2D6 EM (extensive metabolizer) hepatocytes, EM hepatocytes 3): 141 µL/min/1e6 cells | hepatocyte CLint at 2 µM ([9]; human CYP2D6 EM (extensive metabolizer) hepatocytes, EM hepatocytes 4): 51 µL/min/1e6 cells | hepatocyte CLint at 2 µM ([9]; human CYP2D6 EM (extensive metabolizer) hepatocytes, EM hepatocytes 5): 87.4 µL/min/1e6 cells | half-life at 2 µM ([9]; human CYP2D6 EM (extensive metabolizer) hepatocytes, In vitro T1/2, EM hepatocytes 3): 25.4 min | half-life at 2 µM ([9]; human CYP2D6 EM (extensive metabolizer) hepatocytes, In vitro T1/2, EM hepatocytes 4): 34.7 min | half-life at 2 µM ([9]; human CYP2D6 EM (extensive metabolizer) hepatocytes, In vitro T1/2, EM hepatocytes 5): 20.8 min | half-life at 2 µM ([9]; human CYP2D6 EM (extensive metabolizer) hepatocytes, In vitro T1/2, EM hepatocytes Mean (N = 5)): 28.6 min | Cmax ([10]; 2 mg/kg): 1360 ± 160 nM | MRT ([10]; 2 mg/kg): 19.1 min | Tmax ([10]; 2 mg/kg): 5.3 min | half-life ([10]; 2 mg/kg): 19.5 ± 12.2 min | Cmax ([10]; 20 mg/kg): 18300 ± 2800 nM | MRT ([10]; 20 mg/kg): 27.2 min | Tmax ([10]; 20 mg/kg): 7.5 min | half-life ([10]; 20 mg/kg): 13.4 ± 1 min | AUC0→∞ [10, 18]: 25.1 ± 1.3 µmol·min/L | AUC0→∞ ([10]; wild-type mice, 20 mg/kg 5-MeO-DMT i.p.): 650 ± 78 µmol·min/L | clearance [10, 18]: 370 ± 20 mL/min/kg | increase of Cmax by co-administered harmaline ([10]; wild-type mice): about 1.4 fold | increase of MRT by co-administered harmaline ([10]; wild-type mice): ~2.1 fold | increase of systemic exposure (AUC0→∞) by harmaline pre-treatment ([10]; wild-type mice): 4.4 fold

CN(C)CCc1c[nH]c2ccc(O)cc12 [Bufotenine, 5-hydroxy-N,N-dimethyltryptamine]
bufotenine formation from 5-MeO-DMT ([3]; CYP2D6 PM hepatocytes, even co-incubated with harmaline): could not produce detectable bufotenine | higher systemic exposure in Tg-CYP2D6 mice than wild-type mice ([6]; 20 mg/kg 5-MeO-DMT i.p.): 60% | Cmax ([6]; 2 mg/kg): 53 ± 13 nM | MRT ([6]; 2 mg/kg): 33.7 min | Tmax ([6]; 2 mg/kg): 8.8 min | half-life ([6]; 2 mg/kg): 20.7 ± 9.8 min | MRT ([6]; 20 mg/kg): 52.8 min | Tmax ([6]; 20 mg/kg): 27.5 min | half-life ([6]; 20 mg/kg): 18.5 ± 1.5 min | AUC(Bufotenine)/AUC(5−MeO−DMT) [6, 17]: 8.5 ± 2.8% | AUC(Bufotenine)/AUC(5−MeO−DMT) ([6]; Tg-CYP2D6 mice, 2 mg/kg 5-MeO-DMT i.p. with 5 mg/kg harmaline i.p. pretreatment): 24.0 ± 3.3% ^a, ^b | increase of systemic exposure (AUC0→∞) by harmaline pre-treatment ([6]; Tg-CYP2D6 mice): 9.9 fold | AUC0→∞ [6, 17]: 1.82 ± 0.74 µmol·min/L | bufotenine formation from 5-MeO-DMT ([8]; CYP2D6 EM hepatocytes): only detected in incubations with CYP2D6 EM hepatocytes | Cmax ([10]; 2 mg/kg): 51.4 ± 9.1 nM | MRT ([10]; 2 mg/kg): 54.9 min | Tmax ([10]; 2 mg/kg): 11.3 min | half-life ([10]; 2 mg/kg): 33 ± 26 min | Cmax ([10]; 20 mg/kg): 210 ± 54 nM | MRT ([10]; 20 mg/kg): 55.8 min | Tmax ([10]; 20 mg/kg): 21.3 min | half-life ([10]; 20 mg/kg): 25.4 ± 5.3 min | AUC0→∞ [10, 18]: 2.69 ± 1.21 µmol·min/L | AUC(Bufotenine)/AUC(5−MeO−DMT) [10, 18]: 10.5 ± 4.4% | AUC(Bufotenine)/AUC(5−MeO−DMT) ([10]; wild-type mice, 2 mg/kg 5-MeO-DMT i.p. with 5 mg/kg harmaline i.p. pretreatment): 15.1 ± 2.9% | increase of Cmax by co-administered harmaline ([10]; wild-type mice): about 2.6 fold | increase of MRT by co-administered harmaline ([10]; wild-type mice): ~1.8 fold | increase of systemic exposure (AUC0→∞) by harmaline pre-treatment ([10]; wild-type mice): 6.1 fold
